# Measured values: patent US9790215B2 (FLATLEY DISCOVERY LAB, LLC, priority 2013, dated 2017)
# Molecular target: T1, human ΔF508-CFTR (Homo sapiens, UniProt P13569, DEL508-508)
# T1 construct: expressed in transfected cells
# Experiment: CFTR-YFP High Throughput Assay (YFP halide flux in FRT cells)
# Format: cell-based
# Settings: FRT cells expressing human ΔF508-CFTR and YFP; Emax normalized to the positive control
# How it was run: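 FRT cells stably co-expressing human ΔF508-CFTR and halide-sensitive YFP-H148Q/I152L were treated with compound […] for 24–26 h at 37 °C (corrector mode), washed, then stimulated with 20 μM forskolin plus 30 μM potentiator P3 for 60–120 min at room temperature. Iodide-induced YFP quench (ex 500/em 540 nm) rates came from least-squares fitting.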
# T1 sequence (P13569 with tags, fused parts or gaps DEL508-508): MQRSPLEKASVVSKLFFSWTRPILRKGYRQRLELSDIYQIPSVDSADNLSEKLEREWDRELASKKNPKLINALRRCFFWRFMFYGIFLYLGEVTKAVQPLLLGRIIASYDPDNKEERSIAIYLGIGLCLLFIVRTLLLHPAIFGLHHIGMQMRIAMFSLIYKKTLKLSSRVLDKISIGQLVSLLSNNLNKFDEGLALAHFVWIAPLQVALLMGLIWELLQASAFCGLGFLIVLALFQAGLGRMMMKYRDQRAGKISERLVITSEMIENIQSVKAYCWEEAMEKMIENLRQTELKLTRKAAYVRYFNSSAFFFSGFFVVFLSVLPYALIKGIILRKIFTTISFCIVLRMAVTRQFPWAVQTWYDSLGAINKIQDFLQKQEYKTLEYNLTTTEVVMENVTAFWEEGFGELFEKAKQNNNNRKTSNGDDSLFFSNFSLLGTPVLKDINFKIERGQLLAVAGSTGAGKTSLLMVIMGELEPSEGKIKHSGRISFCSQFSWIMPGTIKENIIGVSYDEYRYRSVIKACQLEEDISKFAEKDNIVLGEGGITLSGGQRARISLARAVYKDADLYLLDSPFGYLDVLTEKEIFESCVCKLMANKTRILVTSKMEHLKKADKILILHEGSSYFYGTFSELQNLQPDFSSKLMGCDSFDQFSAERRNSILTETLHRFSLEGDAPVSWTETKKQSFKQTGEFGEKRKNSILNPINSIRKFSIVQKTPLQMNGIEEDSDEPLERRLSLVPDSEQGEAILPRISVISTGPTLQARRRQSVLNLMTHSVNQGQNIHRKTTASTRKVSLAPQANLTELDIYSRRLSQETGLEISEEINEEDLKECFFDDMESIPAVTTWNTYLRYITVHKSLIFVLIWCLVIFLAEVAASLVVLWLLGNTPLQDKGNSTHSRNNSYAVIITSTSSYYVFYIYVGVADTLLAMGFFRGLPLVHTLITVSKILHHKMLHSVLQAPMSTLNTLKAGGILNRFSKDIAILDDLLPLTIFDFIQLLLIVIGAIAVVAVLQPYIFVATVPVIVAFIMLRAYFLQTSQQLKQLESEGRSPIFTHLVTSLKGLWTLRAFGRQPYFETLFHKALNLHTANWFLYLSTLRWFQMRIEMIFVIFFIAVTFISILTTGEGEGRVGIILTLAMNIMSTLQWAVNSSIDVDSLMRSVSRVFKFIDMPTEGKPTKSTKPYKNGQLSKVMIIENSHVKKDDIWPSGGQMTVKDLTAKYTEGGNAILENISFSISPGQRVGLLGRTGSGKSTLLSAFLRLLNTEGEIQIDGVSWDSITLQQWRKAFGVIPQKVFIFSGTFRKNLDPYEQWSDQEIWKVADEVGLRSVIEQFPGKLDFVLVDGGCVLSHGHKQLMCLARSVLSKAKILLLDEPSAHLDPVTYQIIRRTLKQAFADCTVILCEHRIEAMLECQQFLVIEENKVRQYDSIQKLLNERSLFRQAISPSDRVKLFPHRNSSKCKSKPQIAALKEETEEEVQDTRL
row,% Efficacy (Emax normalized to the positive control),Compound
1,++ (a range of 80%-30%),"N-(2,2-difluorobenzo[d][1,3]dioxol-5-yl)-N-ethyl-2-(1-oxo-4-(4-sulfamoyl-phenyl)phthalazin-2(1H)-yl)acetamide [Example 17]"
2,+++ (EMAX > 80%),"2-(4-(3-chlorophenyl)-1-oxophthalazin-2(1H)-yl)-N-(2,2-difluorobenzo[d][1,3]dioxol-5-yl)-N-ethylacetamide [Example 21]"
3,+++ (EMAX > 80%),"4-(3-(2-((2,2-difluorobenzo[d][1,3]dioxol-5-yl)(ethyl)amino)-2-oxoethyl)-4-oxo-3,4-dihydro-phthalazin-1-yl)benzamide [Example 18]"
4,++ (a range of 80%-30%),N-ethyl-N-(4-ethylphenyl)-2-(4-(3-hydroxyphenyl)-1-oxophthalazin-2(1H)-yl)acetamide [Example 8]
5,+ (a range of 30%-10%),"2-(4-(benzo[d][1,3]dioxol-4-yl)-1-oxophthalazin-2(1H)-yl)-N-ethyl-N-(4-ethylphenyl)acetamide [Example 9]"

# Same assay, conditions: FRT cells expressing human ΔF508-CFTR and YFP; forskolin stimulated
row,EC50 [µM],Compound
1,10 to 20,"CCN(C(=O)Cn1ncc2c(c1=O)c1ccccc1n2Cc1cccc(OC)c1)c1ccc2c(c1)OC(F)(F)O2 [Example 89, N-(2,2-difluorobenzo[d] [1,3]dioxol-5-yl)-N-ethyl-2-(5-(3-methoxybenzyl)-1-oxo-1H-pyridazino[4,5-b]indol-2(5H)-yl)acetamide]"
2,< 10,"CCN(C(=O)c1nn(-c2ccc(C)cc2)c(=O)c2c1c1ccccc1n2C)c1ccc2c(c1)OC(F)(F)O2 [Example 133, N-(2,2-difluorobenzo[d][1,3]dioxol-5-yl)-N-ethyl-5-methyl-4-oxo-3-(p-tolyl)-4,5-dihydro-3H-pyridazino[4,5-b]indole-1-carboxamide]"
3,< 10,"CCN(C(=O)Cn1ncc2c(c1=O)c1ccccc1n2CCC(=O)OC)c1ccc2c(c1)OC(F)(F)O2 [Example 88, methyl 3-(2-(2-((2,2-difluorobenzo[d][1,3]dioxol-5-yl)(ethyl)amino)-2-oxoethyl)-1-oxo-1H-pyridazino[4,5-b]indol-5(2H)-yl)propanoate]"
4,< 10,"CCN(C(=O)Cn1nc(Cc2cccnc2)c2c(C)cccc2c1=O)c1ccc2c(c1)OC(F)(F)O2 [Example 48, N-(2,2-difluorobenzo[d][1,3]dioxol-5-yl)-N-ethyl-2-(5-methyl-1-oxo-4-(pyridin-3-ylmethyl)phthalazin-2(1H)-yl)acetamide]"
5,< 10,"CCN(C(=O)c1nn(-c2ccccn2)c(=O)c2c1c1ccccc1n2C)c1ccccc1 [Example 118, N-ethyl-5-methyl-4-oxo-N-phenyl-3-(pyridin-2-yl)-4,5-dihydro-3H-pyridazino[4,5-b]indole-1-carboxamide]"
6,< 10,"CCc1ccc(N(CC)C(=O)Cn2nc(Cc3cccnc3)c3cccc(C)c3c2=O)cc1 [Example 30, N-ethyl-N-(4-ethylphenyl)-2-(8-methyl-1-oxo-4-(pyridin-3-ylmethyl)phthalazin-2(1H)-yl)acetamide]"
7,< 10,"CCN(C(=O)Cn1nc(C(=O)N(CC)c2ccccc2C#N)c2ccccc2c1=O)c1ccc2c(c1)OC(F)(F)O2 [Example 83, N-(2-cyanophenyl)-3-(2-((2,2-difluoro-benzo[d][1,3]dioxol-5-yl)(ethyl)amino)-2-oxoethyl)-N-ethyl-4-oxo-3,4-dihydro-phthalazine-1-carboxamide]"
8,< 10,"CCN(C(=O)c1nn(-c2nccs2)c(=O)c2c1c1ccccc1n2C)c1ccccc1 [Example 121, N-ethyl-5-methyl-4-oxo-N-phenyl-3-(thiazol-2-yl)-4,5-dihydro-3H-pyridazino[4,5-b]indole-1-carboxamide]"
9,< 10,"N-(2,2-difluorobenzo[d][1,3]dioxol-5-yl)-N-ethyl-2-(1-oxo-4-(4-sulfamoyl-phenyl)phthalazin-2(1H)-yl)acetamide [Example 17]"
10,< 10,"CCN(C(=O)Cn1nc(Cc2cccnc2)c2ccccc2c1=O)c1ccc2c(c1)OC(F)(F)O2 [Example 26, N-(2,2-difluorobenzo[d][1,3]dioxol-5-yl)-N-ethyl-2-(1-oxo-4-(pyridin-3-ylmethyl)phthalazin-2(1H)-yl)acetamide]"
11,< 10,"CCN(C(=O)Cn1nc(Cc2cccnc2)c2c(OC)cccc2c1=O)c1ccc2c(c1)OC(F)(F)O2 [Example 56, N-(2,2-difluorobenzo[d][1,3]dioxol-5-yl)-N-ethyl-2-(5-methoxy-1-oxo-4-(pyridin-3-ylmethyl)phthalazin-2(1H)-yl)acetamide]"
12,< 10,"Cc1ccc(-n2nc(C(=O)N3CCN(Cc4ccccc4)CC3)c3c4ccccc4n(C)c3c2=O)cc1 [Example 112, 1-(4-benzylpiperazine-1-carbonyl)-5-methyl-3-(p-tolyl)-3H-pyridazino[4,5-b]indol-4(5H)-one]"
13,< 10,"CCN(C(=O)c1nn(C(C)C)c(=O)c2c1c1ccccc1n2C)c1cc(Cl)ccc1C#N [Example 144, N-(5-chloro-2-cyanophenyl)-N-ethyl-3-isopropyl-5-methyl-4-oxo-4,5-dihydro-3H-pyridazino[4,5-b]indole-1-carboxamide]"
14,< 10,"CCc1ccc(N(CC)C(=O)Cn2nc(Cc3cccnc3)c3cc(C(C)(C)C)ccc3c2=O)cc1 [Example 34, 2-(6-(tert-butyl)-1-oxo-4-(pyridin-3-ylmethyl)phthalazin-2(1H)-yl)-N-ethyl-N-(4-ethylphenyl)acetamide]"
15,< 10,"2-(4-(3-chlorophenyl)-1-oxophthalazin-2(1H)-yl)-N-(2,2-difluorobenzo[d][1,3]dioxol-5-yl)-N-ethylacetamide [Example 21]"
16,10 to 20,"4-(3-(2-((2,2-difluorobenzo[d][1,3]dioxol-5-yl)(ethyl)amino)-2-oxoethyl)-4-oxo-3,4-dihydro-phthalazin-1-yl)benzamide [Example 18]"
17,< 10,"CCN(CC)C(=O)c1nn(-c2ccc(C)cc2)c(=O)c2c1c1ccccc1n2C [Example 106, N,N-diethyl-5-methyl-4-oxo-3-(p-tolyl)-4,5-dihydro-3H-pyridazino[4,5-b]indole-1-carboxamide]"
18,> 20,"CCc1ccc(N(CC)C(=O)Cn2nc(Cc3cccnc3)c3cc(Cl)c(Cl)cc3c2=O)cc1 [Example 38, 2-(6,7-dichloro-1-oxo-4-(pyridin-3-ylmethyl)phthalazin-2(1H)-yl)-N-ethyl-N-(4-ethylphenyl)acetamide]"
19,< 10,"CCN(C(=O)c1nn(-c2ccccc2)c(=O)c2c1c1ccccc1n2C)c1ccncn1 [Example 102, N-ethyl-5-methyl-4-oxo-3-phenyl-N-(pyrimidin-4-yl)-4,5-dihydro-3H-pyridazino[4,5-b]indole-1-carboxamide]"
20,< 10,N-ethyl-N-(4-ethylphenyl)-2-(4-(3-hydroxyphenyl)-1-oxophthalazin-2(1H)-yl)acetamide [Example 8]
21,< 10,"CCN(C(=O)c1nn(-c2ccncc2)c(=O)c2c1c1ccccc1n2C)c1ccccc1 [Example 120, N-ethyl-5-methyl-4-oxo-N-phenyl-3-(pyridin-4-yl)-4,5-dihydro-3H-pyridazino[4,5-b]indole-1-carboxamide]"
22,< 10,"CCN(C(=O)c1nn(-c2ccc(C)cc2)c(=O)c2c1c1ccccc1n2C)C1CC1 [Example 111, N-cyclopropyl-N-ethyl-5-methyl-4-oxo-3-(p-tolyl)-4,5-dihydro-3H-pyridazino[4,5-b]indole-1-carboxamide]"
23,< 10,"CCN(C(=O)Cn1ncc2c(c1=O)c1ccccc1n2Cc1cccnc1)c1ccc2c(c1)OC(F)(F)O2 [Example 94, N-(2,2-difluorobenzo[d][1,3]dioxol-5-yl)-N-ethyl-2-(1-oxo-5-(pyridin-3-ylmethyl)-1H-pyridazino[4,5-b]indol-2(5H)-yl)acetamide]"
24,> 20,CCN(C(=O)Cn1nc(-c2cccnc2)c2ccccc2c1=O)c1ccc2c(c1)OC(F)(F)O2 [Example 24]
25,< 10,"2-(4-(benzo[d][1,3]dioxol-4-yl)-1-oxophthalazin-2(1H)-yl)-N-ethyl-N-(4-ethylphenyl)acetamide [Example 9]"
